Legend:
KRas^WT = target: T1, KRas^WT (Homo sapiens, UniProt P01116); assay: KRas binding assay (TR-FRET displacement of Cy5 labelled tracer)
T1 construct: […]; biotin (biotinylated); purchased Accelegan Inc

KRas^G12A = target: T2, KRas^G12A (Homo sapiens, UniProt P01116, G12A); assay: as above
T2 construct: […]; biotin (biotinylated); purchased Accelegan Inc

KRas^G12D = target: T3, KRas^G12D (Homo sapiens, UniProt P01116, G12D); assay: as above
T3 construct: […]; biotin (biotinylated); purchased Accelegan Inc

KRas^G12R = target: T4, KRas^G12R (Homo sapiens, UniProt P01116, G12R); assay: as above
T4 construct: […]; biotin (biotinylated); purchased Accelegan Inc

KRas^G12S = target: T5, KRas^G12S (Homo sapiens, UniProt P01116, G12S); assay: as above
T5 construct: […]; biotin (biotinylated); purchased Accelegan Inc

KRas^G12V = target: T6, KRas^G12V (Homo sapiens, UniProt P01116, G12V); assay: as above
T6 construct: […]; biotin (biotinylated); purchased Accelegan Inc

KRas^G12C = KRas^G12C (Homo sapiens, UniProt P01116, G12C); assay: biochemical
KRas^G13D = KRas^G13D (Homo sapiens, UniProt P01116, G13D); assay: biochemical
KRas^Q61H = KRas^Q61H (Homo sapiens, UniProt P01116, Q61H); assay: biochemical
Sequence of KRas^Q61H (P01116 1-169 isoform P01116-2 Q61H): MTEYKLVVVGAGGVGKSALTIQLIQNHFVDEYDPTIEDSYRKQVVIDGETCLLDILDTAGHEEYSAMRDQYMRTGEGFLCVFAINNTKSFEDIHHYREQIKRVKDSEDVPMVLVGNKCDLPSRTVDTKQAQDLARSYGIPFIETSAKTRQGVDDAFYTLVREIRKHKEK

T4 sequence (P01116 1-169 isoform P01116-2 G12R): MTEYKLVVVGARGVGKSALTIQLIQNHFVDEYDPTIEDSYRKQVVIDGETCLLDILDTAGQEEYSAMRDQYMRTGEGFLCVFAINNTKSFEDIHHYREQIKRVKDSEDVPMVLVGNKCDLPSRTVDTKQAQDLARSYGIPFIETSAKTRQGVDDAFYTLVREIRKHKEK
T5 sequence (P01116 1-169 isoform P01116-2 G12S): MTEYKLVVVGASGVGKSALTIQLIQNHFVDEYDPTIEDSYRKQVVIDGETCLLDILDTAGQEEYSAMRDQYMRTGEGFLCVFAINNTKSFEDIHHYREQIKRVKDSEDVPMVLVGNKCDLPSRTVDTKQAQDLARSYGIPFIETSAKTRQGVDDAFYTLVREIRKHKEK
T3 sequence (P01116 1-169 isoform P01116-2 G12D): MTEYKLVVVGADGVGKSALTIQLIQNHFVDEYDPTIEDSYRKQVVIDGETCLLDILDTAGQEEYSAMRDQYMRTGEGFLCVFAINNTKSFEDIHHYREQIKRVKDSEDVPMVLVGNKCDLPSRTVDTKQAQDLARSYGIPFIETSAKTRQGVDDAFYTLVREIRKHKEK
T6 sequence (P01116 1-169 isoform P01116-2 G12V): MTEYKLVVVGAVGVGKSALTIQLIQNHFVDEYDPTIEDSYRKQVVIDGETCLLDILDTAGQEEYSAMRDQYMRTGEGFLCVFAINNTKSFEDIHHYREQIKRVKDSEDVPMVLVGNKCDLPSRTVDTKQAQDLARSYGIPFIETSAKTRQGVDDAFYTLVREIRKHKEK
T2 sequence (P01116 1-169 isoform P01116-2 G12A): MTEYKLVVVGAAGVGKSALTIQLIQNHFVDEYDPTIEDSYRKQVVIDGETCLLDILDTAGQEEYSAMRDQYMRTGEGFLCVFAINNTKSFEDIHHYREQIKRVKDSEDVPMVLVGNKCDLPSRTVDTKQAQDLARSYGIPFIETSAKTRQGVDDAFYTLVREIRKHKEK
T1 sequence (P01116 1-169 isoform P01116-2): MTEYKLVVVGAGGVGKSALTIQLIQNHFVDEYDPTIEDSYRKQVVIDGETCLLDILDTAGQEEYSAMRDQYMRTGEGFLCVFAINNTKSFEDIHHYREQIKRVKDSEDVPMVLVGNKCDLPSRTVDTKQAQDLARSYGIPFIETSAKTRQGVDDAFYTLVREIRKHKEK
Sequence of KRas^G12C (P01116 1-169 isoform P01116-2 G12C): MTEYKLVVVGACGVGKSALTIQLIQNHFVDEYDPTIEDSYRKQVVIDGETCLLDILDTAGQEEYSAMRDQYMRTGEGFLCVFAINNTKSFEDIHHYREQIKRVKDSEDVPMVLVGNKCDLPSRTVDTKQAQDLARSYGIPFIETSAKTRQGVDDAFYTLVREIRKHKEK
Sequence of KRas^G13D (P01116 1-169 isoform P01116-2 G13D): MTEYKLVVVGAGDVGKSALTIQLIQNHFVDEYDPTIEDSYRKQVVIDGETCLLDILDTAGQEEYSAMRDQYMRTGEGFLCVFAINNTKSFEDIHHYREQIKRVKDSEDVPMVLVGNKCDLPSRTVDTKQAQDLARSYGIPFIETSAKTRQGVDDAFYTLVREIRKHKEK

SMILES | IC50 (KRas^WT) [µM] | IC50 (KRas^G12A) [µM] | IC50 (KRas^G12D) [µM] | IC50 (KRas^G12R) [µM] | IC50 (KRas^G12S) [µM] | IC50 (KRas^G12V) [µM] | IC50 (KRas^G12C) [µM] | IC50 (KRas^G13D) [µM] | IC50 (KRas^Q61H) [µM]
CCc1cccc2cccc(N3CCc4c(nc(OCC56CCCN5CCC6)nc4N4CCCC(c5nc(N)n(C)n5)C4)C3)c12 (stereo not drawn) [Example 84, 3-(1-(7-(8-ethylnaphthalen-1-yl)-2-((tetrahydro-1H-pyrrolizin-7a(5H)-yl)methoxy)-5,6,7,8-tetrahydropyrido[3,4-d]pyrimidin-4-yl)piperidin-3-yl)-1-methyl-1H-1,2,4-triazol-5-amine] | 0.838 | 0.215 | 2.11 | 0.104 | 0.351 | 0.291 | 0.161 | 0.696 | 0.734
CCc1cccc2cccc(N3CCc4c(nc(OCC56CCCN5CCC6)nc4N4CCCC(O)(C(F)F)C4)C3)c12 (stereo not drawn) [Example 44, 3-(difluoromethyl)-1-(7-(8-ethylnaphthalen-1-yl)-2-((hexahydro-1H-pyrrolizin-7a-yl)methoxy)-5,6,7,8-tetrahydropyrido[3,4-d]pyrimidin-4-yl)piperidin-3-ol] | 0.191 | 0.202 | 0.162 | 0.308 | 0.202 | 0.2 | 0.232 | 0.163 | 0.226
CCc1cccc2cccc(N3CCc4c(nc(OCC56CCCN5CCC6)nc4N4CCC(CO)C(O)C4)C3)c12 (stereo not drawn) [Example 86, 1-(7-(8-ethylnaphthalen-1-yl)-2-((tetrahydro-1H-pyrrolizin-7a(5H)-yl)methoxy)-5,6,7,8-tetrahydropyrido[3,4-d]pyrimidin-4-yl)-4-(hydroxymethyl)piperidin-3-ol] | 0.158 | 0.225 | 1.32 | 0.465 | 0.304 | 0.498 | 0.576 | 0.151 | 0.194
CCc1cccc2cccc(N3CCc4c(nc(OCC56CCCN5CCC6)nc4N4CCOCC(C)(O)C4)C3)c12 (stereo not drawn) [Example 22, 4-(7-(8-ethylnaphthalen-1-yl)-2-((hexahydro-1H-pyrrolizin-7a-yl)methoxy)-5,6,7,8-tetrahydropyrido[3,4-d]pyrimidin-4-yl)-6-methyl-1,4-oxazepan-6-ol] | 0.105 | 0.093 | 0.068 | 0.123 | 0.089 | 0.071 | 0.072 | 0.101 | 0.095
CCc1cccc2cccc(N3CCc4c(nc(OCC56CCCN5CCC6)nc4N4CCCC5(CC(=O)N5)C4)C3)c12 (stereo not drawn) [Example 16, 6-(7-(8-ethylnaphthalen-1-yl)-2-((hexahydro-1H-pyrrolizin-7a-yl)methoxy)-5,6,7,8-tetrahydropyrido[3,4-d]pyrimidin-4-yl)-1,6-diazaspiro[3.5]nonan-2-one] | 0.066 | 0.045 | 0.063 | 0.028 | 0.045 | 0.018 | 0.037 | 0.065 | 0.055
CCc1cccc2cccc(N3CCc4c(nc(OCC56CCCN5CCC6)nc4N4CCCC(c5cc(=O)[nH][nH]5)C4)C3)c12 (stereo not drawn) [Example 87, 5-(1-(7-(8-ethylnaphthalen-1-yl)-2-((tetrahydro-1H-pyrrolizin-7a(5H)-yl)methoxy)-5,6,7,8-tetrahydropyrido[3,4-d]pyrimidin-4-yl)piperidin-3-yl)-1,2-dihydro-3H-pyrazol-3-one] | 1.01 | 1.14 | 4.88 | 0.165 | 1.15 | 1.87 | 0.47 | 1.47 | 0.844
CCc1cccc2cccc(N3CCc4c(nc(OCC56CCCN5CCC6)nc4N4C[C@@H]5C(=O)NC(=O)[C@@H]5C4)C3)c12 [Example 11, (3aR,6aS)-5-(7-(8-ethylnaphthalen-1-yl)-2-((tetrahydro-1H-pyrrolizin-7a(5H)-yl)methoxy)-5,6,7,8-tetrahydropyrido[3,4-d]pyrimidin-4-yl)tetrahydropyrrolo[3,4-c]pyrrole-1,3(2H,3aH)-dione] | 0.051 | 0.045 | 0.022 | 0.042 | 0.015 | 0.018 | 0.041 | 0.042 | 0.05

Further lines, results first:

IC50 (KRas^WT) [µM] | IC50 (KRas^G12A) [µM] | IC50 (KRas^G12D) [µM] | IC50 (KRas^G12R) [µM] | IC50 (KRas^G12S) [µM] | IC50 (KRas^G12V) [µM] | IC50 (KRas^G12C) [µM] | IC50 (KRas^G13D) [µM] | IC50 (KRas^Q61H) [µM] | SMILES
0.444 | 0.453 | 1.07 | 0.514 | 0.482 | 0.341 | 0.33 | 0.629 | 0.537 | CCc1cccc2cccc(N3CCc4c(nc(OCC56CCCN5CCC6)nc4N(C)CC4(O)CC4)C3)c12 [Example 98, 1-(((7-(8-ethylnaphthalen-1-yl)-2-((tetrahydro-1H-pyrrolizin-7a(5H)-yl)methoxy)-5,6,7,8-tetrahydropyrido[3,4-d]pyrimidin-4-yl)(methyl)amino)methyl)cyclopropan-1-ol]
15 | 11.1 | 26.4 | 4.95 | 9.63 | 7.12 | 5.39 | 21.9 | 14.6 | CCc1cccc2cccc(N3CCc4c(nc(OCC56CCCN5CCC6)nc4NC4CCc5ncsc5C4)C3)c12 (stereo not drawn) [Example 168, N-(7-(8-ethylnaphthalen-1-yl)-2-((tetrahydro-1H-pyrrolizin-7a(5H)-yl)methoxy)-5,6,7,8-tetrahydropyrido[3,4-d]pyrimidin-4-yl)-4,5,6,7-tetrahydrobenzo[d]thiazol-6-amine]
0.678 | 0.427 | 2.62 | 0.234 | 0.698 | 0.701 | 0.256 | 1.1 | 1.24 | CCc1cccc2cccc(N3CCc4c(nc(OCC56CCCN5CCC6)nc4N4CCCC(c5n[nH]c(C)n5)C4)C3)c12 (stereo not drawn) [Example 93, 7-(8-ethylnaphthalen-1-yl)-4-(3-(5-methyl-1H-1,2,4-triazol-3-yl)piperidin-1-yl)-2-((tetrahydro-1H-pyrrolizin-7a(5H)-yl)methoxy)-5,6,7,8-tetrahydropyrido[3,4-d]pyrimidine]
27.4 | 21.7 | 7.69 | 14.6 | 15 | 2.74 | 6.79 | 25.2 | 21.3 | CCc1cccc2cccc(N3CCc4c(nc(OCC56CCCN5CCC6)nc4NCc4nnc(CSC)[nH]4)C3)c12 [Example 161, 7-(8-ethylnaphthalen-1-yl)-N-((5-((methylthio)methyl)-4H-1,2,4-triazol-3-yl)methyl)-2-((tetrahydro-1H-pyrrolizin-7a(5H)-yl)methoxy)-5,6,7,8-tetrahydropyrido[3,4-d]pyrimidin-4-amine]
4.73 | 5.03 | 5.53 | 1.56 | 4.87 | 2.55 | 1.95 | 5.98 | 5.16 | CCc1cccc2cccc(N3CCc4c(nc(OCC56CCCN5CCC6)nc4NC4CN(c5ccccn5)C4)C3)c12 [Example 150, 7-(8-ethylnaphthalen-1-yl)-N-(1-(pyridin-2-yl)azetidin-3-yl)-2-((tetrahydro-1H-pyrrolizin-7a(5H)-yl)methoxy)-5,6,7,8-tetrahydropyrido[3,4-d]pyrimidin-4-amine]
0.215 | 0.475 | 1.11 | 0.47 | 0.505 | 0.403 | 0.482 | 0.176 | 0.228 | CCc1cccc2cccc(N3CCc4c(nc(OCC56CCCN5CCC6)nc4N4CCOCC(n5cncn5)C4)C3)c12 (stereo not drawn) [Example 88, 4-(7-(8-ethylnaphthalen-1-yl)-2-((tetrahydro-1H-pyrrolizin-7a(5H)-yl)methoxy)-5,6,7,8-tetrahydropyrido[3,4-d]pyrimidin-4-yl)-6-(1H-1,2,4-triazol-1-yl)-1,4-oxazepane]
8.43 | 7.28 | 1.73 | 4.66 | 4.17 | 3.36 | 3.51 | 6.44 | 8.15 | CCc1cccc2cccc(N3CCc4c(nc(OCC56CCCN5CCC6)nc4NC4CCNC(=O)C4)C3)c12 (stereo not drawn) [Example 153, 4-((7-(8-ethylnaphthalen-1-yl)-2-((tetrahydro-1H-pyrrolizin-7a(5H)-yl)methoxy)-5,6,7,8-tetrahydropyrido[3,4-d]pyrimidin-4-yl)amino)piperidin-2-one]
0.357 | 0.805 | 15 | 3.08 | 3.09 | 6.45 | 2.99 | 0.363 | 0.424 | CCc1cccc2cccc(N3CCc4c(nc(OCC56CCCN5CCC6)nc4N4CCCN(C(=O)c5ccco5)CC4)C3)c12 [Example 102, (4-(7-(8-ethylnaphthalen-1-yl)-2-((tetrahydro-1H-pyrrolizin-7a(5H)-yl)methoxy)-5,6,7,8-tetrahydropyrido[3,4-d]pyrimidin-4-yl)-1,4-diazepan-1-yl)(furan-2-yl)methanone]

Reference: patent publication US12421253B2 (Mirati Therapeutics, Inc., priority 2020, dated 2025)
